In this assay the test system is BDF1 mice, s.c. Lewis lung carcinoma, T/C %. Description: NCI In Vivo Anticancer Drug Screen. Data for tumor model Lewis Lung Carcinoma (subcutaneous) in B6D2F1 (BDF1) mice. The procedure, abridged:
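Transplanted tumors grown in mice; compound vs vehicle dosing; endpoint survival or tumor size; ratio T/C.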

Structures are written as SMILES. Where “and” joins values, the source holds several entries; their conditions need not be identical. Identical values can stand only once. Records with an inconclusive call do not appear.

Regarding `COc1ccc(-c2oc3ccc(C)cc3c(=O)c2O)cc1`, the T/C reads like this: (endpoint: mean tumor weight, dose: 1.9 mg/kg/injection, schedule: Q01DX011 (ip), vehicle: saline, higher = larger tumour) 91 % of control; (endpoint: mean tumor weight, dose: 3.9 mg/kg/injection, schedule: Q01DX011 (ip), vehicle: saline, higher = larger tumour) 100 % of control; (endpoint: mean tumor weight, dose: 7.8 mg/kg/injection, schedule: Q01DX011 (ip), vehicle: saline, higher = larger tumour) 80 % of control; (endpoint: mean tumor weight, dose: 15.6 mg/kg/injection, schedule: Q01DX010 (ip), vehicle: saline, higher = larger tumour) 71 % of control; (endpoint: mean tumor weight, dose: 15.6 mg/kg/injection, schedule: Q01DX011 (ip), vehicle: saline, higher = larger tumour) 67 % of control; (endpoint: mean tumor weight, dose: 31.3 mg/kg/injection, schedule: Q01DX010 (ip), vehicle: saline, higher = larger tumour) 82 % of control. Further, the T/C was 81 % of control (endpoint: mean tumor weight, dose: 62.5 mg/kg/injection, schedule: Q01DX010 (ip), vehicle: saline, higher = larger tumour) and 84 % of control (endpoint: mean tumor weight, dose: 125.0 mg/kg/injection, schedule: Q01DX010 (ip), vehicle: saline, higher = larger tumour).

Take `COc1ccc(CN2CCCN(Cc3ccc(OC)cc3)C2c2ccccc2)cc1`: the T/C runs as follows: (endpoint: mean tumor weight, dose: 111.0 mg/kg/injection, schedule: Q01DX011 (ip), vehicle: other, higher = larger tumour) 120 % of control; (endpoint: mean tumor weight, dose: 250.0 mg/kg/injection, schedule: Q01DX011 (ip), vehicle: other, higher = larger tumour) 83 % of control.

Regarding `O=NN(CCCl)C(=O)Nc1ccc2[nH]c3ccccc3c2c1`, the T/C reads like this: (endpoint: median survival time, dose: 4.0 mg/kg/injection, schedule: Q01DX009 (ip), vehicle: Klucel (hydroxypropylcellulose) (HPC), higher = longer survival) 119 % of control; (endpoint: median survival time, dose: 8.12 mg/kg/injection, schedule: Q01DX009 (ip), vehicle: Klucel (hydroxypropylcellulose) (HPC), higher = longer survival) 110 % of control; (endpoint: median survival time, dose: 32.5 mg/kg/injection, schedule: Q01DX009 (ip), vehicle: Klucel (hydroxypropylcellulose) (HPC), higher = longer survival) 97 % of control.

Take `CN(C)/N=N/c1nc[nH]c1C(N)=O`: the T/C is, setting by setting: (endpoint: mean tumor weight, dose: 12.5 mg/kg/injection, schedule: Q01DX011 (ip), vehicle: saline, higher = larger tumour) 76 % of control; (endpoint: mean tumor weight, dose: 25.0 mg/kg/injection, schedule: Q01DX011 (ip), vehicle: saline, higher = larger tumour) 108 % of control; (endpoint: mean tumor weight, dose: 48.0 mg/kg/injection, schedule: Q01DX011 (ip), vehicle: carboxymethylcellulose (CMC), higher = larger tumour) 111 % of control; (endpoint: mean tumor weight, dose: 50.0 mg/kg/injection, schedule: Q01DX011 (ip), vehicle: saline, higher = larger tumour) 80 % of control; (endpoint: mean tumor weight, dose: 95.0 mg/kg/injection, schedule: Q01DX011 (ip), vehicle: carboxymethylcellulose (CMC), higher = larger tumour) 117 % of control; (endpoint: mean tumor weight, dose: 100.0 mg/kg/injection, schedule: Q01DX010 (ip), vehicle: saline, higher = larger tumour) 44 % of control. The T/C is 42 % of control (endpoint: mean tumor weight, dose: 100.0 mg/kg/injection, schedule: Q01DX011 (ip), vehicle: saline, higher = larger tumour); 78 % of control (endpoint: mean tumor weight, dose: 143.0 mg/kg/injection, schedule: Q01DX011 (ip), vehicle: carboxymethylcellulose (CMC), higher = larger tumour); 51 % of control (endpoint: mean tumor weight, dose: 200.0 mg/kg/injection, schedule: Q01DX010 (ip), vehicle: saline, higher = larger tumour); 94 % of control and 122 % of control (endpoint: median survival time, dose: 27.0 mg/kg/injection, schedule: Q01DX015 (ip), vehicle: carboxymethylcellulose (CMC), higher = longer survival); 97 % of control and 116 % of control (endpoint: median survival time, dose: 37.5 mg/kg/injection, schedule: Q01DX009 (ip), vehicle: Klucel (hydroxypropylcellulose) (HPC), higher = longer survival); 106 % of control and 118 % of control (endpoint: median survival time, dose: 37.5 mg/kg/injection, schedule: Q01DX009 (ip), vehicle: saline with Tween-80, higher = longer survival). The T/C by setting is: (endpoint: median survival time, dose: 40.0 mg/kg/injection, schedule: Q01DX015 (ip), vehicle: carboxymethylcellulose (CMC), higher = longer survival) 92 % of control; (endpoint: median survival time, dose: 60.0 mg/kg/injection, schedule: Q01DX015 (ip), vehicle: carboxymethylcellulose (CMC), higher = longer survival) 102 % of control; (endpoint: median survival time, dose: 75.0 mg/kg/injection, schedule: Q01DX009 (ip), vehicle: Klucel (hydroxypropylcellulose) (HPC), higher = longer survival) 110 % of control; (endpoint: median survival time, dose: 75.0 mg/kg/injection, schedule: Q01DX009 (ip), vehicle: saline with Tween-80, higher = longer survival) 118 % of control; (endpoint: median survival time, dose: 100.0 mg/kg/injection, schedule: Q01DX009 (ip), vehicle: saline with Tween-80, higher = longer survival) 118 % of control; (endpoint: median survival time, dose: 150.0 mg/kg/injection, schedule: Q01DX009 (ip), vehicle: Klucel (hydroxypropylcellulose) (HPC), higher = longer survival) 122 % of control. The T/C is, setting by setting: (endpoint: median survival time, dose: 150.0 mg/kg/injection, schedule: Q01DX009 (ip), vehicle: saline with Tween-80, higher = longer survival) 92 % of control; (endpoint: median survival time, dose: 200.0 mg/kg/injection, schedule: Q01DX009 (ip), vehicle: saline with Tween-80, higher = longer survival) 113 % of control; (endpoint: median survival time, dose: 300.0 mg/kg/injection, schedule: Q01DX009 (ip), vehicle: Klucel (hydroxypropylcellulose) (HPC), higher = longer survival) 95 % of control; (endpoint: median survival time, dose: 450.0 mg/kg/injection, schedule: Q01DX001 (ip), vehicle: carboxymethylcellulose (CMC), higher = longer survival) 93 % of control; (endpoint: median survival time, dose: 670.0 mg/kg/injection, schedule: Q01DX001 (ip), vehicle: carboxymethylcellulose (CMC), higher = longer survival) 96 % of control; (endpoint: median tumor weight (est.), dose: 23.7 mg/kg/injection, schedule: Q01DX009 (ip), vehicle: carboxymethylcellulose (CMC), higher = larger tumour) 102 % of control. Moreover, the T/C (endpoint: median tumor weight (est.), dose: 24.0 mg/kg/injection, schedule: Q01DX009 (ip), vehicle: carboxymethylcellulose (CMC), higher = larger tumour) was 74 % of control and 77 % of control; the T/C (endpoint: median tumor weight (est.), dose: 37.5 mg/kg/injection, schedule: Q01DX009 (ip), vehicle: saline with Tween-80, higher = larger tumour) was 90 % of control; the T/C (endpoint: median tumor weight (est.), dose: 47.0 mg/kg/injection, schedule: Q01DX009 (ip), vehicle: carboxymethylcellulose (CMC), higher = larger tumour) is 99 % of control; the T/C (endpoint: median tumor weight (est.), dose: 47.5 mg/kg/injection, schedule: Q01DX009 (ip), vehicle: carboxymethylcellulose (CMC), higher = larger tumour) is 50 % of control; the T/C (endpoint: median tumor weight (est.), dose: 48.0 mg/kg/injection, schedule: Q01DX009 (ip), vehicle: carboxymethylcellulose (CMC), higher = larger tumour) is 70 % of control; the T/C (endpoint: median tumor weight (est.), dose: 75.0 mg/kg/injection, schedule: Q01DX009 (ip), vehicle: saline with Tween-80, higher = larger tumour) is 73 % of control. In addition, the T/C runs as follows: (endpoint: median tumor weight (est.), dose: 95.0 mg/kg/injection, schedule: Q01DX009 (ip), vehicle: carboxymethylcellulose (CMC), higher = larger tumour) 79 % of control and 82 % of control and 99 % of control; (endpoint: median tumor weight (est.), dose: 150.0 mg/kg/injection, schedule: Q01DX009 (ip), vehicle: saline with Tween-80, higher = larger tumour) 70 % of control; (endpoint: median tumor weight (est.), dose: 300.0 mg/kg/injection, schedule: Q01DX009 (ip), vehicle: saline with Tween-80, higher = larger tumour) 36 % of control.

Turning to `O=[N+]([O-])c1cc([N+](=O)[O-])c(Br)cc1Cl`, the T/C runs as follows: (endpoint: median survival time, dose: 2.5 mg/kg/injection, schedule: Q01DX009 (ip), vehicle: Klucel (hydroxypropylcellulose) (HPC), higher = longer survival) 104 % of control; (endpoint: median survival time, dose: 5.0 mg/kg/injection, schedule: Q01DX009 (ip), vehicle: Klucel (hydroxypropylcellulose) (HPC), higher = longer survival) 97 % of control; (endpoint: median survival time, dose: 10.0 mg/kg/injection, schedule: Q01DX009 (ip), vehicle: Klucel (hydroxypropylcellulose) (HPC), higher = longer survival) 105 % of control.

`Cc1nnc(NS(=O)(=O)c2ccc(N=Nc3nc4[nH]c(N)nc(=S)c4[nH]3)cc2)s1`: the T/C (endpoint: median survival time, dose: 25.0 mg/kg/injection, schedule: Q01DX009 (ip), vehicle: saline, higher = longer survival) is 109 % of control; the T/C (endpoint: median survival time, dose: 50.0 mg/kg/injection, schedule: Q01DX009 (ip), vehicle: saline, higher = longer survival) is 106 % of control; the T/C (endpoint: median survival time, dose: 100.0 mg/kg/injection, schedule: Q01DX009 (ip), vehicle: saline, higher = longer survival) was 98 % of control; the T/C (endpoint: median survival time, dose: 200.0 mg/kg/injection, schedule: Q01DX009 (ip), vehicle: saline, higher = longer survival) is 98 % of control.

With `CCN1C=C/C(=C\C=C/c2cc[n+](CC)c3ccccc23)c2ccccc21`, the T/C by setting is: (endpoint: median survival time, dose: 6.0 micrograms/kg/injection, schedule: Q01DX009 (ip), vehicle: saline, higher = longer survival) 114 % of control; (endpoint: median survival time, dose: 6.2 micrograms/kg/injection, schedule: Q01DX009 (ip), vehicle: saline with Tween-80, higher = longer survival) 104 % of control; (endpoint: median survival time, dose: 12.0 micrograms/kg/injection, schedule: Q01DX009 (ip), vehicle: saline, higher = longer survival) 209 % of control; (endpoint: median survival time, dose: 12.5 micrograms/kg/injection, schedule: Q01DX009 (ip), vehicle: saline with Tween-80, higher = longer survival) 98 % of control; (endpoint: median survival time, dose: 25.0 micrograms/kg/injection, schedule: Q01DX009 (ip), vehicle: saline with Tween-80, higher = longer survival) 101 % of control; (endpoint: median survival time, dose: 25.0 micrograms/kg/injection, schedule: Q01DX009 (ip), vehicle: saline, higher = longer survival) 208 % of control. The T/C by setting is: (endpoint: median survival time, dose: 50.0 micrograms/kg/injection, schedule: Q01DX009 (ip), vehicle: saline with Tween-80, higher = longer survival) 98 % of control; (endpoint: median survival time, dose: 50.0 micrograms/kg/injection, schedule: Q01DX009 (ip), vehicle: saline, higher = longer survival) 209 % of control; (endpoint: median survival time, dose: 100.0 micrograms/kg/injection, schedule: Q01DX009 (ip), vehicle: saline with Tween-80, higher = longer survival) 104 % of control.

Source of the values: PubChem BioAssay AID270 (DTP/NCI, 2004).
